Converted amounts (≈) assume the structure as drawn. Where two headings read alike, the source gives them in different places.
Key:
Clostridioides difficile = test: Expanded panel broth microdilution MIC; format: cell-based
Enterococcus faecium = test: Expanded panel broth microdilution MIC/MBC; format: cell-based; settings: for MIC: Enterococcus faecium
Eggerthella lenta = test: Expanded panel broth microdilution MIC; format: cell-based
[1] = tested on: MRSA (ATCC BAA 1556; USA300); test: Acute pulmonary MRSA infection in neutropenic rats, nebulized nose-only inhalation; format: in vivo, Staphylococcus aureus; settings: inhaled at 24 and 32 h postinfection, lungs at 48 h, RV40 14.4 mg/kg, RV94 18.8 mg/kg delivered
Procedure: Rats were rendered neutropenic with intraperitoneal (i.p.) cyclophosphamide on day −4 (150 mg/kg) and day −1 (100 mg/kg) relative to the challenge. On day 0 at 0 h, rats were challenged with MRSA via intranasal instillation at a target titer of 8.0 to 8.3 log10 CFU. At 24 and 32 h postchallenge, rats were loaded into a 12-port inhalation dosing tower, where they received nebulized drug or vehicle control treatments by nose-only inhalation. Animals were euthanized at 48 h postinfection for enumeration of lung MRSA titer. MRSA lung titer of test article treatments versus control is plotted for three separate experiments. […] Statistics are based on the Kolmogorov-Smirnov test for drug treatment versus control (RV94, P = 0.01). LOD = 2.1 log10 CFU/lungset.
Male Sprague Dawley rats (Envigo, Indianapolis, IN) weighing between 225 and 250 g were used in these studies. Rats were housed and acclimated to the study facility as described in the PK methods section. Rats were rendered neutropenic through a series of intraperitoneal cyclophosphamide (Sigma-Aldrich) injections on day −4 (150 mg/kg) and day −1 (100 mg/kg) relative to the challenge. On day 0 at 0 h, rats were challenged with MRSA ATCC BAA 1556 via intranasal instillation at a target titer of 8.0 to 8.3 log10 CFU using optical density and back-counting inoculum CFU. To prepare the inoculum, a frozen aliquot of the organism stored at −80°C was thawed, transferred into TSB, and incubated at 37°C while shaking for 16 h. Cultures were then centrifuged at 2,000 × g for 5 min, and the resulting pellet was resuspended in PBS and equilibrated. For the challenge procedure, rats were first anesthetized through use of 2 to 5% isoflurane in 100% oxygen, then restrained with a scruff grip and a total of 200 μl of inoculum was quickly introduced to one nare. The rat was held in a vertical position until the challenge was fully inhaled. Rats were monitored following challenge to ensure that normal respiration was achieved and then returned to their cage. […] At necropsy, whole lungs were aseptically removed and lung weights were recorded. […]

[2] = tested on: Staphylococcus lugdunensis; test: Expanded panel broth microdilution MIC; format: cell-based
[3] = tested on: Staphylococcus epidermidis; test: Expanded panel broth microdilution MIC/MBC; format: cell-based; settings: for MIC:MBC: MBC on one organism; for MIC: Staphylococcus epidermidis
[4] = tested on: Staphylococcus haemolyticus; test: Expanded panel broth microdilution MIC; format: cell-based
[5] = tested on: Peptostreptococcus anaerobius; test: Expanded panel broth microdilution MIC; format: cell-based
[6] = tested on: Peptostreptococcus micros; test: Expanded panel broth microdilution MIC; format: cell-based

Compound `CCCCCCCCCCNC(=O)CNC1(C)CC(OC2C(Oc3c4cc5cc3Oc3ccc(cc3Cl)C(O)C3NC(=O)C(NC(=O)C5NC(=O)C(CC(N)=O)NC(=O)C(NC(=O)C(CC(C)C)NC)C(O)c5ccc(c(Cl)c5)O4)c4ccc(O)c(c4)-c4c(O)cc(O)cc4C(C(=O)O)NC3=O)OC(CO)C(O)C2O)OC(C)C1O` (stereo not drawn) [RV94] has an MIC (Clostridioides difficile; ATCCBAA1805, C. difficile ATCC BAA-1805, ribo 027, read-out: MIC) of 0.015 µg/mL (≈ 0.00911 µM), an MIC (Clostridioides difficile; ATCCBAA1870, C. difficile ATCC BAA-1870, NAP1;ribo 027, read-out: MIC) of 0.06 µg/mL (≈ 0.0364 µM) and an MIC (Clostridioides difficile; C. difficile ATTC 700057, toxAB-, read-out: MIC) of 0.015 µg/mL (≈ 0.00911 µM). The MIC (Clostridioides difficile; C. difficile NAP1;ribo 027, 1 isolate, read-out: MIC) was 0.06 µg/mL (≈ 0.0364 µM), the MIC (Clostridioides difficile; C. difficile ribo 027, 1 isolate, read-out: MIC) was 0.015 µg/mL (≈ 0.00911 µM) and the MIC (Clostridioides difficile; C. difficile toxAB-, 1 isolate, read-out: MIC) was 0.015 µg/mL (≈ 0.00911 µM). The “MIC:MBC” value (Enterococcus faecium; E. faecium VanA VRE) was greater than 8, the “MIC:MBC” value (Enterococcus faecium; E. faecium VanB VRE) was greater than 8 and the MIC (Enterococcus faecium; E. faecium MMX 4204, VSE, read-out: MIC) was 0.015 µg/mL (≈ 0.00911 µM). It also gave an MIC (Enterococcus faecium; E. faecium VSE, 1 isolate, read-out: MIC) of 0.015 µg/mL (≈ 0.00911 µM), an MIC (Enterococcus faecium; VRE, E. faecium MMX 173, VanB VRE, read-out: MIC) of 0.03 µg/mL (≈ 0.0182 µM) and an MIC (Enterococcus faecium; VRE, E. faecium MMX 851, VanA VRE, read-out: MIC) of 2 µg/mL (≈ 1.21 µM). For the same compound, the MIC (Enterococcus faecium; VRE, E. faecium VanA VRE, 1 isolate, read-out: MIC) was 2 µg/mL (≈ 1.21 µM), the MIC (Enterococcus faecium; VRE, E. faecium VanB VRE, 1 isolate, read-out: MIC) was 0.03 µg/mL (≈ 0.0182 µM) and the MIC (Eggerthella lenta; ATCC43055, E. lenta ATCC 43055, read-out: MIC) was 0.008 µg/mL (≈ 0.00486 µM). The MIC (Eggerthella lenta; E. lenta, 1 isolate, read-out: MIC) was 0.008 µg/mL (≈ 0.00486 µM), the “Average reduction in lung MRSA titer versus vehicle control” value [1] was 1.0 log10 CFU and the MIC ([2]; S. lugdunensis, 1 isolate) was 0.015 µg/mL (≈ 0.00911 µM). For the same compound, the MIC ([2]; Staphylococcus lugdunensis, S. lugdunensis MMX 8724, read-out: MIC) was 0.015 µg/mL (≈ 0.00911 µM), the “MIC:MBC” value ([3]; S. epidermidis MRSE) was 1 and the MIC ([3]; ATCC49134, S. epidermidis ATCC 49134, MSSE, read-out: MIC) was 0.015 µg/mL (≈ 0.00911 µM). For the same compound, the MIC ([3]; MRSE, S. epidermidis MMX 762, MRSE, read-out: MIC) was 0.03 µg/mL (≈ 0.0182 µM), the MIC ([3]; MRSE, S. epidermidis MMX 5145, MRSE, read-out: MIC) was 0.015 µg/mL (≈ 0.00911 µM) and the MIC ([3]; MRSE, S. epidermidis MRSE, 2 isolates, read-out: MIC (median)) was 0.03 µg/mL (≈ 0.0182 µM). For the same compound, the MIC ([3]; S. epidermidis MSSE, 1 isolate, read-out: MIC) was 0.015 µg/mL (≈ 0.00911 µM), the MIC ([4]; ATCC29970, S. haemolyticus ATCC 29970, read-out: MIC) was 0.06 µg/mL (≈ 0.0364 µM) and the MIC ([4]; S. haemolyticus, 1 isolate, read-out: MIC) was 0.06 µg/mL (≈ 0.0364 µM). It also gave an MIC ([5]; ATCC27337, P. anaerobius ATCC 27337, read-out: MIC) of 0.008 µg/mL (≈ 0.00486 µM) and an MIC ([5]; P. anaerobius, 1 isolate, read-out: MIC) of 0.008 µg/mL (≈ 0.00486 µM).

`CCCCCCCCCCNCCN[C@@]1(C)C[C@H](O[C@H]2[C@H](Oc3c4cc5cc3Oc3ccc(cc3Cl)[C@@H](O)[C@@H](NC(=O)[C@@H](CC(C)C)NC)C(=O)N[C@@H](CC(N)=O)C(=O)N[C@H]5C(=O)N[C@H]3C(=O)N[C@H](C(=O)N[C@H](C(=O)O)c5cc(O)c(CNCP(=O)(O)O)c(O)c5-c5cc3ccc5O)[C@H](O)c3ccc(c(Cl)c3)O4)O[C@H](CO)[C@@H](O)[C@@H]2O)O[C@@H](C)[C@H]1O` [Telavancin, telavancin] showed an MIC (Clostridioides difficile; ATCCBAA1805, C. difficile ATCC BAA-1805, ribo 027) of 0.12 µg/mL (≈ 0.0684 µM), an MIC (Clostridioides difficile; ATCCBAA1870, C. difficile ATCC BAA-1870, NAP1;ribo 027) of 0.12 µg/mL (≈ 0.0684 µM) and an MIC (Clostridioides difficile; C. difficile ATTC 700057, toxAB-) of 0.12 µg/mL (≈ 0.0684 µM). For the same compound, the MIC (Clostridioides difficile; C. difficile NAP1;ribo 027, 1 isolate) was 0.12 µg/mL (≈ 0.0684 µM), the MIC (Clostridioides difficile; C. difficile ribo 027, 1 isolate) was 0.12 µg/mL (≈ 0.0684 µM) and the MIC (Clostridioides difficile; C. difficile toxAB-, 1 isolate) was 0.12 µg/mL (≈ 0.0684 µM). For the same compound, the “MIC:MBC” value (Enterococcus faecium; E. faecium VanA VRE) was greater than 4, the “MIC:MBC” value (Enterococcus faecium; E. faecium VanB VRE) was greater than 8 and the MIC (Enterococcus faecium; E. faecium MMX 4204, VSE) was 0.06 µg/mL (≈ 0.0342 µM). It also gave an MIC (Enterococcus faecium; E. faecium VSE, 1 isolate) of 0.06 µg/mL (≈ 0.0342 µM), an MIC (Enterococcus faecium; VRE, E. faecium MMX 173, VanB VRE) of 0.06 µg/mL (≈ 0.0342 µM) and an MIC (Enterococcus faecium; VRE, E. faecium MMX 851, VanA VRE) of 2 µg/mL (≈ 1.14 µM). It also gave an MIC (Enterococcus faecium; VRE, E. faecium VanA VRE, 1 isolate) of 2 µg/mL (≈ 1.14 µM), an MIC (Enterococcus faecium; VRE, E. faecium VanB VRE, 1 isolate) of 0.06 µg/mL (≈ 0.0342 µM) and an MIC ([6]; P. micros, 1 isolate) of 0.12 µg/mL (≈ 0.0684 µM). For the same compound, the MIC ([6]; Parvimonas micra) was 0.12 µg/mL (≈ 0.0684 µM), the MIC ([2]; S. lugdunensis, 1 isolate) was 0.06 µg/mL (≈ 0.0342 µM) and the MIC ([2]; Staphylococcus lugdunensis) was 0.06 µg/mL (≈ 0.0342 µM). The “MIC:MBC” value ([3]; S. epidermidis MRSE) was 1, the MIC ([3]; ATCC49134, S. epidermidis ATCC 49134, MSSE) was 0.12 µg/mL (≈ 0.0684 µM) and the MIC ([3]; MRSE, S. epidermidis MMX 762, MRSE) was 0.12 µg/mL (≈ 0.0684 µM). For the same compound, the MIC ([3]; MRSE, S. epidermidis MMX 5145, MRSE) was 0.03 µg/mL (≈ 0.0171 µM), the MIC ([3]; MRSE, read-out: MIC (median), S. epidermidis MRSE, 2 isolates) was 0.12 µg/mL (≈ 0.0684 µM) and the MIC ([3]; S. epidermidis MSSE, 1 isolate) was 0.12 µg/mL (≈ 0.0684 µM). For the same compound, the MIC [4] was 0.06 µg/mL (≈ 0.0342 µM), the MIC ([4]; ATCC29970) was 0.06 µg/mL (≈ 0.0342 µM) and the MIC [5] was 0.03 µg/mL (≈ 0.0171 µM). It also gave an MIC ([5]; ATCC27337) of 0.03 µg/mL (≈ 0.0171 µM).

From article PMC8373216, “Development and Preclinical Evaluation of New Inhaled Lipoglycopeptides for the Treatment of Persistent Pulmonary Methicillin-Resistant Staphylococcus aureus Infections” (Antimicrobial Agents and Chemotherapy, 2021)
